Source: US20250282782A1, “PYRAZOLOPYRAZINE COMPOUNDS AS SHP2 INHIBITORS” (Genzyme Corporation, priority 2021, published 2025)

Target: human recombinant 6His-Nterm SHP2 full-length (Thr2-Arg593) (Homo sapiens (Human), UniProt Q06124)
Test: SHP2 phosphatase assay (DiFMUP substrate, activating peptide)
Format: biochemical
Protocol: Inhibition of SHP2 phosphatase activity was evaluated using human recombinant 6His-Nterm (SEQ ID NO: 1) SHP2 full-length (Thr2-Arg593, R&D system), NsCs bi-phosphorylated activating peptide (NH2-LN(pY)AQLWHA(PEG8)LTI(pY)ATIRRF-Amide.acetate (SEQ ID NO: 2), Thermofischer Scientific) and DiFMUP as surrogate phosphatase substrate (Molecular Probes). All reactions were performed at room temperature in 384-well black polystyrene non-binding plate (Corning) with the assay buffer (50 mM HEPES-NaOH pH 7.2, 100 mM NaCl, 0.5 mM EDTA, 0.001% Brij35 including 0.02% BSA and 1 mM DTT added extemporaneously). SHP2 was pre-incubated at least 10 min with the activating peptide (0.2 nM and 100 nM, respectively). 10 μL of this mixture was added to the assay plate, that already contained 15 nL of the compound (1000-0.05 nM). After 30 min pre-incubation, the enzymatic reaction was initiated by the addition of 5 μL DiFMUP in assay buffer without BSA (20 μM). The reaction was stopped by the addition of 15 μL sodium pervanadate solution (100 μM) after 45 min incubation. The fluorescence signal was measured at excitation and emission wavelengths of 350 nm and 450 nm, respectively, using a Pherastar instrument (BMG-LabTech). Percentage of inhibition (I %) were calculated from the fluorescence signal at 450 nm of the positive and negative control using the following formula: […]
Positive control (Max): corresponds to the maximum fluorescence signal obtained in the presence of 15 nL DMSO replacing the inhibitor in the pre-incubation step.
Negative control (Min): corresponds to the minimum signal obtained in the presence of 1 μM of RMC-4550, the structure of which is shown below:
The IC50 were then calculated from a dose-response curve of 10 concentrations of tested compound using the 4-parameter logistic model:
The parameters A and (A+C) are the lower and upper limits, B is the slope of the curve at the inflexion point, M parameter is the logarithm of the abscissa at the inflexion point, and X is the concentration of compound.

[1] = full-length SHP2 0.2 nM pre-activated with bi-phosphorylated peptide 100 nM, DiFMUP 20 μM, 10-concentration dose-response

human recombinant 6His-Nterm SHP2 full-length (Thr2-Arg593), sequence (Q06124 2-593): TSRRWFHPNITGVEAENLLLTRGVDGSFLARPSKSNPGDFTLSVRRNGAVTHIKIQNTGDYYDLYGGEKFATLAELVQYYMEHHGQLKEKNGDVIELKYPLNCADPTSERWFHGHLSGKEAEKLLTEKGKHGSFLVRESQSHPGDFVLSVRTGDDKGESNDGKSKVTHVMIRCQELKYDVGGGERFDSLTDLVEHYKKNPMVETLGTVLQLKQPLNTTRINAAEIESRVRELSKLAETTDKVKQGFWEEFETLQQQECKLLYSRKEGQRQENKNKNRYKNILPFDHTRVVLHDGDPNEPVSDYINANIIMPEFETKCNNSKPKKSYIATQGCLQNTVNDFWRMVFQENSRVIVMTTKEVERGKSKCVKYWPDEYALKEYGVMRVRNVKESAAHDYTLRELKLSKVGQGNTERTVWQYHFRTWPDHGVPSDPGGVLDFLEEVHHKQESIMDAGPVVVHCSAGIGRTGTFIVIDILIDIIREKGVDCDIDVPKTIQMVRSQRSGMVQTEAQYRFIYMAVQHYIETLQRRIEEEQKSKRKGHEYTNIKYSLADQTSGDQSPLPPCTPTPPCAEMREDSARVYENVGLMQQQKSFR

Row | SMILES | IC50 (Table 11 summary) | IC50 [1]
1 | Cc1nc(N2CCC3(CC2)Cc2ncccc2[C@H]3N)c2c(CO)cnn2c1-c1ccccc1F [Compound 226, [4-[(5S)-5-aminospiro[5,7-dihydrocyclopenta[b]pyridine-6,4′-piperidine]-1′-yl]-7-(2-fluorophenyl)-6-methyl-pyrazolo[1,5-a]pyrazin-3-yl]methanol] | > 1000 nM | > 1000 nM
2 | Cc1nc(N2CCC3(CC2)Cc2ccncc2[C@H]3N)c2ccnn2c1-c1cnn(C)c1C [Compound 133, (7S)-1′-[7-(1,5-dimethylpyrazol-4-yl)-6-methyl-pyrazolo[1,5-a]pyrazin-4-yl]spiro[5,7-dihydrocyclopenta[c]pyridine-6,4′-piperidine]-7-amine] | 21 nM | 21 nM
3 | COc1cc2c(cn1)CC1(CCN(c3nc(C)c(-c4cnn(C)c4C)n4nccc34)CC1)[C@@H]2N [Compound 132, (5S)-1′-[7-(1,5-dimethylpyrazol-4-yl)-6-methyl-pyrazolo[1,5-a]pyrazin-4-yl]-3-methoxy-spiro[5,7-dihydrocyclopenta[c]pyridine-6,4′-piperidine]-5-amine] | 34 nM | 34 nM
